Patent publication US5098932A, “Cyclic ether derivatives” (Imperial Chemical Industries PLC, ICI Pharma, priority 1988, dated 1992)

Experiments:
5-LO (LTB4) = test: In vitro heparinised human blood assay, A23187 challenge, LTB4 radioimmunoassay, test b); type: cell-based
Procedure: (§1) b) An in vitro assay system involving incubating a test compound with heparinised human blood, prior to challenge with the calcium ionophore A23187 and then indirectly measuring the inhibitory effects on 5-LO by assaying the amount of LTB4 using the specific radioimmunoassay described by Carey and Forder (F. Carey and R. A. Forder, Brit. J. Pharmacol. 1985, 84, 34P) which involves the use of a protein-LTB4 conjugate produced using the procedure of Young et alia (Prostaglandins, 1983, 26(4),605-613). The effects of a test compound on the enzyme cyclooxygenase (which is involved in the alternative metabolic pathway for arachidonic acid and gives rise to prostaglandins, thromboxanes and related metabolites) may be measured at the same time using the specific radioimmunoassay for thromboxane B2 (T×B2) described by Carey and Forder (see above). This test provides an indication of the effects of a test compound against 5-LO and also cyclooxygenase in the presence of blood cells and proteins. It permits the selectivity of the inhibitory effect on 5-LO or cyclooxygenase to be assessed.

cyclooxygenase (TxB2) = test: In vitro heparinised human blood assay, A23187 challenge, TxB2 radioimmunoassay, test b); type: cell-based
Procedure: as §1

IC50 (5-LO (LTB4)): 0.1 µM
IC50 (cyclooxygenase (TxB2)): > 40 µM
Structure (SMILES): CCC1(c2cccc(OCc3ccc4ccccc4c3)c2)COC(C)(C)O1 (centres unmarked) [4-ethyl-2,2-dimethyl-4-[3-(naphth-2-ylmethoxy)phenyl]-1,3-dioxolane]
